Data set [1] concerns the target B-Raf (Homo sapiens (Human), UniProt P15056). Nature of the data set: B-Raf kinase activity biochemical assay (AlphaScreen, biotin-MEK1 phosphorylation). Particulars: B-Raf. Summed up: (§1)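 Biotin-MEK1 phosphorylation measured after 45 min kinase reaction at RT with 100 μM ATP final; compounds tested at 8 points from 0.1 mM DMSO stock.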
Background: Bead proximity is the source of the signal in Alpha formats.

For data set [2], the system named is B-Raf. Described as above. The conditions noted are these: for Biochemical activity ratio B/V600E: ratio of IC50 B-Raf / B-Raf V600E; for Biochemical activity ratio B/C: ratio of IC50 B-Raf / c-Raf-1. In short, it runs like this:
as §1

The target of another data set is B-Raf V600E (Homo sapiens (Human), UniProt P15056, V600E). Nature of the data set: B-Raf V600E kinase activity biochemical assay (AlphaScreen, biotin-MEK1 phosphorylation). The conditions noted are these: for IC50: B-Raf V600E; for Biochemical activity ratio V600E/C: ratio of IC50 B-Raf V600E / c-Raf-1. Summed up: as §1
B-Raf V600E, sequence (P15056 whole entry V600E): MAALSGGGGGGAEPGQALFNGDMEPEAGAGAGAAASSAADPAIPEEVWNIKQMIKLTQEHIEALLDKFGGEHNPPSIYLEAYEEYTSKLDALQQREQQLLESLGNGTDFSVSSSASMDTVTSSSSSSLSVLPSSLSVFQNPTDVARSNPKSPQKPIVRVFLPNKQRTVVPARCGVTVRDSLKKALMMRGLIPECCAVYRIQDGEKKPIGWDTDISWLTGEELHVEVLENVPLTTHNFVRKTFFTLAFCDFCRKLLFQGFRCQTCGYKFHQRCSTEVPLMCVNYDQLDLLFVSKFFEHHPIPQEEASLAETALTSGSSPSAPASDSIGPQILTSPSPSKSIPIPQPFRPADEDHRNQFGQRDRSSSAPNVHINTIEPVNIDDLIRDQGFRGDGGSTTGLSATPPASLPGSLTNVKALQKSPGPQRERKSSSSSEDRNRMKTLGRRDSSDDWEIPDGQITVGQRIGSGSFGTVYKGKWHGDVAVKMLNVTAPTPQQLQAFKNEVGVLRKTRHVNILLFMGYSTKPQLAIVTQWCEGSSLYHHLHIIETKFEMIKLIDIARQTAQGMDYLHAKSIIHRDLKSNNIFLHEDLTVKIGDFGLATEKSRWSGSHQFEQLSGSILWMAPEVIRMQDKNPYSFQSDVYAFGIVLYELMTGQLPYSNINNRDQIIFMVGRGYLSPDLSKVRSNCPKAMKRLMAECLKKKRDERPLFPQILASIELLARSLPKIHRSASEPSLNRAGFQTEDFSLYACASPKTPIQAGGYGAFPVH
A further data set concerns the target c-Raf-1 (Homo sapiens, UniProt P04049). Kind of data set: c-Raf-1 kinase activity biochemical assay (AlphaScreen, biotin-MEK1 phosphorylation). Summed up:
as §1

A short description of data set [3]: Relative solubility by turbidity threshold concentration in aqueous buffers (pH 1.5, 4.5, 6.8, 7.4). The conditions noted are these: for turbidity threshold (L, M, H) 1.4: pH 1.4 [sic] (method: SGF pH 1.5); for turbidity threshold (L, M, H) 4.5: pH 4.5 (SIF); for turbidity threshold (L, M, H) 6.8: pH 6.8 (SIF); for turbidity threshold (L, M, H) 7.4: pH 7.4 (HEPES). The data set is classed as physicochemical. Summed up: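 Solubility class (high >250 μM, moderate 31.3–250 μM, low <31.3 μM) comes from the concentration where absorbance reaches a 0.01 threshold, averaged across 490/535/650 nm. Samples were compound dilutions from DMSO stock, 1 μL into 99 μL buffer at pH 1.5, 4.5, 6.8 or 7.4.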

The next data set deals with CYP1A2 (Homo sapiens (Human), UniProt P05177). Kind of data set: CYP enzyme inhibition, fluorescent substrate (CEC). Summed up: (§2)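 Ten-point 1:1 compound dilutions in NADPH-regenerating cofactor mix, pre-incubated 10 min at 37 °C before enzyme/substrate addition: CYP1A2 0.5 pmol with 5 μM CEC, 15 min, 409 ex/460 em; CYP2D6 1.5 pmol with 1.5 μM AMMC, 30 min, 409 ex/530 em. IC50 from fluorescent product vs concentration.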
CYP1A2, sequence (P05177 whole entry): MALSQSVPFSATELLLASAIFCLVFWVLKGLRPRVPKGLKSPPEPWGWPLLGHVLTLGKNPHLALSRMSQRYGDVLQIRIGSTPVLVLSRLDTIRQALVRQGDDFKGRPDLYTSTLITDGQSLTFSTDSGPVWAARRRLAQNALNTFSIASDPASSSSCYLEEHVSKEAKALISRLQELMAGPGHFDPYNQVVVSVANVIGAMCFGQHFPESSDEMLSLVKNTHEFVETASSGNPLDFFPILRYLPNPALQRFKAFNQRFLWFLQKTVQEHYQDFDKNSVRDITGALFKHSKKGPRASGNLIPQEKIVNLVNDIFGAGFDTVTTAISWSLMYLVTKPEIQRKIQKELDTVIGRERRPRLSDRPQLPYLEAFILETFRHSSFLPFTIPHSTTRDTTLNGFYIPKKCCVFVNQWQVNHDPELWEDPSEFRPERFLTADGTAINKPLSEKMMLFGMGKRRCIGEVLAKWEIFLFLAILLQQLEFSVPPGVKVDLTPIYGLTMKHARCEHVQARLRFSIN

A further data set addresses CYP2C19 (Homo sapiens (Human), UniProt P33261). Kind of data set: CYP enzyme inhibition, fluorescent substrate (CEC). In short, it runs like this: (§3)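 IC50 values come from plotting product fluorescence against compound concentration; inhibition lowers formation of the fluorescent metabolite. Ten-point twofold dilutions in co-factor mix were held 10 minutes at 37 °C before the enzyme reaction, also run at 37 °C.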

The next data set concerns the target CYP2C9 (Homo sapiens (Human), UniProt P11712). Nature of the data set: CYP enzyme inhibition, fluorescent substrate (MFC). Summed up: as §3
The target of another data set is CYP2D6 (Homo sapiens (Human), UniProt P10635). Nature of the data set: CYP enzyme inhibition, fluorescent substrate (AMMC). Particulars: read-out: Cyp IC50 2D6. The data set is classed as in vitro ADME. In short, it runs like this: as §2
CYP2D6, sequence (P10635 whole entry): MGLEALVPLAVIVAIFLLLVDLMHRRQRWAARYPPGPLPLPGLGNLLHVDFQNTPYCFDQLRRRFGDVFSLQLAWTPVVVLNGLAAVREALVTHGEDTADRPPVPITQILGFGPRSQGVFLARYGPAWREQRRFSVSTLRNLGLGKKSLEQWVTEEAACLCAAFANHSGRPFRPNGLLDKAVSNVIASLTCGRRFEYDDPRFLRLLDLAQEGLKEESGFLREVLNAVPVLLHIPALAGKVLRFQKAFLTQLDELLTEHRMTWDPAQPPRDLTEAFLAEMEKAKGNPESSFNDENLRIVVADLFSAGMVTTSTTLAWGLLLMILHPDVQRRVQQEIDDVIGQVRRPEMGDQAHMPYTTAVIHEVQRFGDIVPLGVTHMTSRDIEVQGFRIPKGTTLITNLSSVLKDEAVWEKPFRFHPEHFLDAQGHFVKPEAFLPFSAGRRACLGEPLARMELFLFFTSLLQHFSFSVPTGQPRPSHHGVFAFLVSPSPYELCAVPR
Another data set has as its target CYP3A4(BFC) (Homo sapiens (Human), UniProt P08684). Kind of data set: CYP enzyme inhibition, fluorescent substrate BFC. In short, it runs like this: as §3
Another data set deals with CYP3A4(BQ) (Homo sapiens (Human), UniProt P08684). Kind of data set: CYP enzyme inhibition, fluorescent substrate BQ. In short, it runs like this:
as §3

Setting [4] is: read-out: Cyp IC50 3A4(BFC), CYP3A4, substrate BFC.
Where [5] appears, read: read-out: Cyp IC50 3A4(BQ), CYP3A4, substrate BQ.
Where [6] appears, read: read-out: Cyp IC50 1A2, CYP1A2, substrate CEC.
Setting [7] is: read-out: Cyp IC50 2C19, CYP2C19, substrate CEC.
The mark [8] stands for this setting: read-out: Cyp IC50 2C9, CYP2C9, substrate MFC.

Each structure is given as a SMILES string. Like-named read-outs stand apart in the source and are kept apart here. A value given as a limit tells only on which side of the number the result lay.

CYP2C19, sequence (P33261 whole entry): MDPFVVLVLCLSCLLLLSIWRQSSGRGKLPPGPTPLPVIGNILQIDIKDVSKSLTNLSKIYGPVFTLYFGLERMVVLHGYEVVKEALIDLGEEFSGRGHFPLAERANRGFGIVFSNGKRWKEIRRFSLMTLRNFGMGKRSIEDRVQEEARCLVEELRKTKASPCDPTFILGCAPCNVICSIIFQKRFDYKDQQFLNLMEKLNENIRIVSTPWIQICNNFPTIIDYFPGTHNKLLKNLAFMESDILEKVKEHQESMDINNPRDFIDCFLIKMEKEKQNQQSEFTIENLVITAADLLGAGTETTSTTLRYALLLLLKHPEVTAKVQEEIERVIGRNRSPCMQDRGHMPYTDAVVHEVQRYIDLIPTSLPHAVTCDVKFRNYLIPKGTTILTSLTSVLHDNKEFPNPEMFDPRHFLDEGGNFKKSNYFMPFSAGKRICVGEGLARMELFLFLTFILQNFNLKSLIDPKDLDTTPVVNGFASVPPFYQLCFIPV
CYP3A4(BFC), sequence (P08684 whole entry): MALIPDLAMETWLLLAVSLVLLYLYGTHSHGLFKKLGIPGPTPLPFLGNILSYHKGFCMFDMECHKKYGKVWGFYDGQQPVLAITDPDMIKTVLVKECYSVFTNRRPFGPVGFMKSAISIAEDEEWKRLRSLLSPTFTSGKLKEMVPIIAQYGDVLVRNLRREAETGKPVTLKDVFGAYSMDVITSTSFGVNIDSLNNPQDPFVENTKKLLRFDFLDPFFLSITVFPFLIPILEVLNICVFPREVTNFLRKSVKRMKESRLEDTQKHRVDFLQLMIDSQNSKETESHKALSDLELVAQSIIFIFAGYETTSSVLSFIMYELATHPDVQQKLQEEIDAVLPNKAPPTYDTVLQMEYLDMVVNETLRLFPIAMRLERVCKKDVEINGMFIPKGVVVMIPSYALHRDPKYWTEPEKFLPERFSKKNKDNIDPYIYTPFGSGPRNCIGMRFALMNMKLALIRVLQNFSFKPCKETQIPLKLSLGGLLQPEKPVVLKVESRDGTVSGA
CYP3A4(BQ), sequence (P08684 whole entry): as above
c-Raf-1, sequence (P04049 whole entry, looked up): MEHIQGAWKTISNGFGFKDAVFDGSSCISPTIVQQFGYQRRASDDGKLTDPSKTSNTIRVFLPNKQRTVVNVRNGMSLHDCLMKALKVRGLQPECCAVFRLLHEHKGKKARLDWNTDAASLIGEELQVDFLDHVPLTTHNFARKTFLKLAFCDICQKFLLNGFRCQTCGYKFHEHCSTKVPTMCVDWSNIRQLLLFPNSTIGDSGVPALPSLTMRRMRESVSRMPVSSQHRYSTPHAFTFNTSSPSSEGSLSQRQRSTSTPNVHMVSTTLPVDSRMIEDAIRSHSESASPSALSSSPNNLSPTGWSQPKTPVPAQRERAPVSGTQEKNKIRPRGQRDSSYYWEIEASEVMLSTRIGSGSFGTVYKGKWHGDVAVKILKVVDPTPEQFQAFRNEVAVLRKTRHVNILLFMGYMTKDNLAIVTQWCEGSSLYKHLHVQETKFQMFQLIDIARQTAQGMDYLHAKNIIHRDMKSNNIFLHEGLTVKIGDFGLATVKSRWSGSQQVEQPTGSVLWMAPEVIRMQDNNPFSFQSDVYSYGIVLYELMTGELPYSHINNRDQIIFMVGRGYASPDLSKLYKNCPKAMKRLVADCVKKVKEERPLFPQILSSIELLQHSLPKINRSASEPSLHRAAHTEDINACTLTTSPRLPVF
CYP2C9, sequence (P11712 whole entry): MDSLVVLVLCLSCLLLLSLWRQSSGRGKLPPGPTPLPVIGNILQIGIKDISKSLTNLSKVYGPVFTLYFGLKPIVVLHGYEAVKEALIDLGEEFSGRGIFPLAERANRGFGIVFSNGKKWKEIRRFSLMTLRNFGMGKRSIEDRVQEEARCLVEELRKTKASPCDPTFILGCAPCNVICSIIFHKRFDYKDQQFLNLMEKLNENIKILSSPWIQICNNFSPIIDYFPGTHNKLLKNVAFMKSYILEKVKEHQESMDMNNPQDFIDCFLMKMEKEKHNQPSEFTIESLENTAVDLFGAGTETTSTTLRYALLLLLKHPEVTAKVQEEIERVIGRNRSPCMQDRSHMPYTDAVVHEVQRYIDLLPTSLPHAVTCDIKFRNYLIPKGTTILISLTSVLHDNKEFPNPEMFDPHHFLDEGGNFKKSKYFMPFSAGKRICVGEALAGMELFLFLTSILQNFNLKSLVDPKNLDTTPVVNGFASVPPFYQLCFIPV
B-Raf (Homo sapiens (Human), UniProt P15056), sequence (P15056 whole entry): as the sequence (P15056 whole entry V600E) above, with E600V counted along it

As for `O=C(c1c(F)ccc(NS(=O)(=O)c2ccc(C(F)(F)F)cc2)c1F)c1c[nH]c2ncnc(OCC3CC3)c12` [P-1053, N-[3-(4-Cyclopropylmethoxy-7H-pyrrolo[2,3-d]pyrimidine-5-carbonyl)-2,4-difluoro-phenyl]-4-trifluoromethyl-benzenesulfonamide], the half-inhibitory concentration (IC50) – broadly, the point on the concentration scale where inhibition reaches its midpoint – was less than 0.1 µM on B-Raf [1]; more than 0.1 µM against B-Raf V600E; less than 0.1 µM against c-Raf-1; more than 10 µM at CYP1A2 (human, 15 min); 5 to 10 µM on CYP2C19; 5 to 10 µM on CYP2C9. The IC50 on CYP2D6, on CYP3A4(BFC) (setting [4]) and on CYP3A4(BQ) (setting [5]) was more than 10 µM each time. Besides, the “Biochemical activity ratio B/V600E” value in the data set on B-Raf [2] was 0.1-10. Moreover, the “Biochemical activity ratio B/C” value in the data set on B-Raf [2] is given as 0.1-10. The “Biochemical activity ratio V600E/C” value at B-Raf V600E is listed as more than 10. Besides, in [3], the “turbidity threshold (L, M, H) 1.4” value is given as “L (low solubility if the threshold concentration is <31.3 μM)”. Besides, the “turbidity threshold (L, M, H) 4.5” value in [3] is given as “L (low solubility if the threshold concentration is <31.3 μM)”. Moreover, the “turbidity threshold (L, M, H) 6.8” value in data set [3] is reported as “L (low solubility if the threshold concentration is <31.3 μM)”. In addition, the “turbidity threshold (L, M, H) 7.4” value in data set [3] is listed as “L (low solubility if the threshold concentration is <31.3 μM)”.

In the case of `CCCS(=O)(=O)Nc1ccc(F)c(C(=O)c2c[nH]c3ncnc(OCC)c23)c1F` [P-1002, Propane-1-sulfonic acid [3-(4-ethoxy-7H-pyrrolo[2,3-d]pyrimidine-5-carbonyl)-2,4-difluoro-phenyl]-amide], the IC50 on B-Raf [1] was more than 0.1 µM; at B-Raf V600E, less than 0.1 µM; against c-Raf-1, less than 0.1 µM; against CYP1A2, more than 10 µM; against CYP2C19, more than 10 µM; at CYP2C9, more than 10 µM. Further, the IC50 at CYP2D6, against CYP3A4(BFC) and at CYP3A4(BQ) was more than 10 µM throughout. Moreover, the “Biochemical activity ratio B/V600E” value in the data set with B-Raf [2] is on record as 0.1-10. For the same molecule, the “Biochemical activity ratio B/C” value in the data set on B-Raf [2] is recorded as more than 10. Besides, the “Biochemical activity ratio V600E/C” value on B-Raf V600E was 0.1-10. In data set [3], the “turbidity threshold (L, M, H) 1.4” value is reported as “H (high solubility if the threshold concentration is >250 μm)”. In data set [3], the “turbidity threshold (L, M, H) 4.5” value was “H (high solubility if the threshold concentration is >250 μm)”. The “turbidity threshold (L, M, H) 6.8” value in data set [3] was “H (high solubility if the threshold concentration is >250 μm)”. Further, the “turbidity threshold (L, M, H) 7.4” value in data set [3] is “H (high solubility if the threshold concentration is >250 μm)”.

With `COc1ncnc2[nH]cc(C(=O)c3c(F)ccc(NS(=O)(=O)c4ccc(C(C)C)cc4)c3F)c12` [P-1010, N-[2,4-Difluoro-3-(4-methoxy-7H-pyrrolo[2,3-d]pyrimidine-5-carbonyl)-phenyl]-4-isopropyl-benzenesulfonamide], the IC50 was more than 0.1 µM at B-Raf [1]; more than 0.1 µM on B-Raf V600E; more than 0.1 µM against c-Raf-1; more than 10 µM at CYP1A2 (setting [6]); 5 to 10 µM at CYP2C19; 5 to 10 µM against CYP2C9. The half-inhibitory concentration (IC50) on CYP2D6, on CYP3A4(BFC) (setting [4]) and on CYP3A4(BQ) (setting [5]) was more than 10 µM in each case. In the data set on B-Raf [2], the “Biochemical activity ratio B/V600E” value is 0.1-10. For the same molecule, the “Biochemical activity ratio B/C” value in the data set on B-Raf [2] is reported as 0.1-10. Further, the “Biochemical activity ratio V600E/C” value on B-Raf V600E was more than 10. Besides, the “turbidity threshold (L, M, H) 1.4” value in data set [3] is given as “L (low solubility if the threshold concentration is <31.3 μM)”. In addition, the “turbidity threshold (L, M, H) 4.5” value in data set [3] is recorded as “L (low solubility if the threshold concentration is <31.3 μM)”. Also, in data set [3], the “turbidity threshold (L, M, H) 6.8” value is reported as “L (low solubility if the threshold concentration is <31.3 μM)”. Further, the “turbidity threshold (L, M, H) 7.4” value in data set [3] is given as “M (moderate solubility if the threshold concentration is 31.3 μM to 250 μM)”.

Turning to `O=C(c1c(F)ccc(NS(=O)(=O)c2ccc(C(F)(F)F)cc2)c1F)c1c[nH]c2ncnc(O)c12` [P-1012, N-[2,4-Difluoro-3-(4-hydroxy-7H-pyrrolo[2,3-d]pyrimidine-5-carbonyl)-phenyl]-4-trifluoromethyl-benzenesulfonamide], the 50% inhibitory concentration (IC50) against B-Raf [1] was more than 0.1 µM; on B-Raf V600E, more than 0.1 µM; against c-Raf-1, less than 0.1 µM; on CYP1A2 (setting [6]) it was more than 10 µM; at CYP2C19 (setting [7]), more than 10 µM; on CYP2C9 (setting [8]), more than 10 µM. Also, the IC50 at CYP2D6, at CYP3A4(BFC) (setting [4]) and at CYP3A4(BQ) (setting [5]) was more than 10 µM each time. Also, the “Biochemical activity ratio B/V600E” value in the data set with B-Raf [2] is given as 0.1-10. Besides, in the data set with B-Raf [2], the “Biochemical activity ratio B/C” value is 0.1-10. Further, on B-Raf V600E, the “Biochemical activity ratio V600E/C” value is more than 10. Besides, the “turbidity threshold (L, M, H) 1.4” value in [3] is reported as “M (moderate solubility if the threshold concentration is 31.3 μM to 250 μM)”. The “turbidity threshold (L, M, H) 4.5” value in data set [3] is “M (moderate solubility if the threshold concentration is 31.3 μM to 250 μM)”. Further, the “turbidity threshold (L, M, H) 6.8” value in [3] was “H (high solubility if the threshold concentration is >250 μm)”. For the same molecule, the “turbidity threshold (L, M, H) 7.4” value in data set [3] is “H (high solubility if the threshold concentration is >250 μm)”.

For `O=C(c1c(F)ccc(NS(=O)(=O)c2ccc(C(F)(F)F)cc2)c1F)c1c[nH]c2ncnc(N3CCCC3)c12` [P-1061, N-[2,4-Difluoro-3-(4-pyrrolidin-1-yl-7H-pyrrolo[2,3-d]pyrimidine-5-carbonyl)-phenyl]-4-trifluoromethyl-benzenesulfonamide], the half-inhibitory concentration (IC50) against B-Raf [1] was more than 0.1 µM; against B-Raf V600E, more than 0.1 µM; against c-Raf-1, more than 0.1 µM; against CYP1A2 (human, 15 min) it was more than 10 µM; on CYP2C19 (setting [7]), more than 10 µM; on CYP2C9 (setting [8]) it was more than 10 µM. In addition, the IC50 on CYP2D6, on CYP3A4(BFC) (setting [4]) and on CYP3A4(BQ) (setting [5]) was more than 10 µM throughout. For the same molecule, the “Biochemical activity ratio B/V600E” value in the data set with B-Raf [2] is on record as 0.1-10. The “Biochemical activity ratio B/C” value with B-Raf [2] was 0.1-10. For the same molecule, at B-Raf V600E, the “Biochemical activity ratio V600E/C” value was more than 10. Also, the “turbidity threshold (L, M, H) 1.4” value in data set [3] is on record as “H (high solubility if the threshold concentration is >250 μm)”. The “turbidity threshold (L, M, H) 4.5” value in data set [3] was “M (moderate solubility if the threshold concentration is 31.3 μM to 250 μM)”. The “turbidity threshold (L, M, H) 6.8” value in data set [3] is recorded as “M (moderate solubility if the threshold concentration is 31.3 μM to 250 μM)”. In addition, in data set [3], the “turbidity threshold (L, M, H) 7.4” value was “H (high solubility if the threshold concentration is >250 μm)”.

On to `CCCS(=O)(=O)Nc1ccc(F)c(C(=O)c2c[nH]c3ncc(Cl)c(OC)c23)c1F` [P-2006, Propane-1-sulfonic acid [3-(5-chloro-4-methoxy-1H-pyrrolo[2,3-b]pyridine-3-carbonyl)-2,4-difluoro-phenyl]-amide], for which the IC50 against B-Raf [1] was less than 0.1 µM; at B-Raf V600E it was less than 0.1 µM; against c-Raf-1, less than 0.1 µM; at CYP1A2, more than 10 µM; against CYP2C19, less than 5 µM; against CYP2C9 it was less than 5 µM. Further, the IC50 on CYP2D6 was more than 10 µM; against CYP3A4(BFC), 5 to 10 µM; at CYP3A4(BQ), more than 10 µM. For the same molecule, the “Biochemical activity ratio B/V600E” value in the data set with B-Raf [2] is listed as 0.1-10. Moreover, the “Biochemical activity ratio B/C” value with B-Raf [2] is more than 10. Also, the “Biochemical activity ratio V600E/C” value on B-Raf V600E was 0.1-10. Besides, in data set [3], the “turbidity threshold (L, M, H) 1.4” value is “M (moderate solubility if the threshold concentration is 31.3 μM to 250 μM)”. In addition, the “turbidity threshold (L, M, H) 4.5” value in [3] is “M (moderate solubility if the threshold concentration is 31.3 μM to 250 μM)”. In addition, the “turbidity threshold (L, M, H) 6.8” value in data set [3] is listed as “M (moderate solubility if the threshold concentration is 31.3 μM to 250 μM)”. In data set [3], the “turbidity threshold (L, M, H) 7.4” value is on record as “M (moderate solubility if the threshold concentration is 31.3 μM to 250 μM)”.

Source of the values: US9617267B2, “Compounds and methods for kinase modulation, and indications therefor” (Plexxikon Inc., priority 2009, dated 2017).
